Earlier results as cited in US20250215053A1, “LYSINE RICH CELL-PENETRATING PEPTIDES” (OXFORD UNIVERSITY INNOVATION LIMITED, priority 2022, published 2025).

Tested on: dystrophin
Settings: in vivo

eteplirsen
dystrophin restoration: approximately 1 % of normal dystrophin levels
